Test results from ChEMBL document CHEMBL4825757, “Optimization of 4,6-Disubstituted Pyrido[3,2-d]pyrimidines as Dual MNK/PIM Inhibitors to Inhibit Leukemia Cell Growth” (J Med Chem, 2021).
Calls of active or inactive are those of the source. The rule behind the calls is not given here.

Assays:
[1] = target: T1, MAP kinase-interacting serine/threonine-protein kinase 1 (Homo sapiens, UniProt Q9BUB5); test: Inhibition of MKN1 (unknown origin) in presence of ATP by HTRF assay
[2] = target: T2, MAP kinase-interacting serine/threonine-protein kinase 2 (Homo sapiens, UniProt Q9HBH9); test: Inhibition of MKN2 (unknown origin) in presence of ATP by HTRF assay
Target sequence in this assay (Q9HBH9 whole entry): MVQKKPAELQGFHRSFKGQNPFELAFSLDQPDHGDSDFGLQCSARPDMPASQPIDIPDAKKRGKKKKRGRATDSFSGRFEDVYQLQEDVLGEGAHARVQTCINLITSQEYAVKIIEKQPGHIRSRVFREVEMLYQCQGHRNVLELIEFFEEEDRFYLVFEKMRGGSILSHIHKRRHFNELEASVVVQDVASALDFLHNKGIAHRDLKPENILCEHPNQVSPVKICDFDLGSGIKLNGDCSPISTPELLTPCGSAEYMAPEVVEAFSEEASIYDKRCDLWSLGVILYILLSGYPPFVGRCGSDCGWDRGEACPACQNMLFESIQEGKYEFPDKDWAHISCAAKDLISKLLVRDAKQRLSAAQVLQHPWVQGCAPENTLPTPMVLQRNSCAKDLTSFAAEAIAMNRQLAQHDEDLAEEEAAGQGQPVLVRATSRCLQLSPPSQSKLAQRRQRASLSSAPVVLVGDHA

MOLM-13 [3] = test: Antiproliferative activity against human MOLM13 cells assessed as reduction of cell viability incubated for 72 hrs by trypan blue staining based cell counting analysis; format: functional
[4] = target: T2, MAP kinase-interacting serine/threonine-protein kinase 2; test: Inhibition of wild type human partial length MKN2 (G63 to S388 residues) expressed in mammalian expression system at 1 uM by Kinomescan method relative to control
Target sequence in this assay (Q9HBH9 whole entry, looked up): as the sequence (Q9HBH9 whole entry) above

[5] = target: Serine/threonine-protein kinase B-raf (Homo sapiens, UniProt P15056); test: Inhibition of wild-type human partial length BRAF (S429 to E741 residues) expressed in mammalian expression system at 1 uM by Kinomescan method relative to control
[6] = target: Receptor tyrosine-protein kinase erbB-2 (Homo sapiens, UniProt P04626); test: Inhibition of wild-type human partial length ERBB2 (K646 to V1225 residues) expressed in mammalian expression system at 1 uM by Kinomescan method relative to control
Sequence of Receptor tyrosine-protein kinase erbB-2 (P04626 whole entry, the tested form may be a part): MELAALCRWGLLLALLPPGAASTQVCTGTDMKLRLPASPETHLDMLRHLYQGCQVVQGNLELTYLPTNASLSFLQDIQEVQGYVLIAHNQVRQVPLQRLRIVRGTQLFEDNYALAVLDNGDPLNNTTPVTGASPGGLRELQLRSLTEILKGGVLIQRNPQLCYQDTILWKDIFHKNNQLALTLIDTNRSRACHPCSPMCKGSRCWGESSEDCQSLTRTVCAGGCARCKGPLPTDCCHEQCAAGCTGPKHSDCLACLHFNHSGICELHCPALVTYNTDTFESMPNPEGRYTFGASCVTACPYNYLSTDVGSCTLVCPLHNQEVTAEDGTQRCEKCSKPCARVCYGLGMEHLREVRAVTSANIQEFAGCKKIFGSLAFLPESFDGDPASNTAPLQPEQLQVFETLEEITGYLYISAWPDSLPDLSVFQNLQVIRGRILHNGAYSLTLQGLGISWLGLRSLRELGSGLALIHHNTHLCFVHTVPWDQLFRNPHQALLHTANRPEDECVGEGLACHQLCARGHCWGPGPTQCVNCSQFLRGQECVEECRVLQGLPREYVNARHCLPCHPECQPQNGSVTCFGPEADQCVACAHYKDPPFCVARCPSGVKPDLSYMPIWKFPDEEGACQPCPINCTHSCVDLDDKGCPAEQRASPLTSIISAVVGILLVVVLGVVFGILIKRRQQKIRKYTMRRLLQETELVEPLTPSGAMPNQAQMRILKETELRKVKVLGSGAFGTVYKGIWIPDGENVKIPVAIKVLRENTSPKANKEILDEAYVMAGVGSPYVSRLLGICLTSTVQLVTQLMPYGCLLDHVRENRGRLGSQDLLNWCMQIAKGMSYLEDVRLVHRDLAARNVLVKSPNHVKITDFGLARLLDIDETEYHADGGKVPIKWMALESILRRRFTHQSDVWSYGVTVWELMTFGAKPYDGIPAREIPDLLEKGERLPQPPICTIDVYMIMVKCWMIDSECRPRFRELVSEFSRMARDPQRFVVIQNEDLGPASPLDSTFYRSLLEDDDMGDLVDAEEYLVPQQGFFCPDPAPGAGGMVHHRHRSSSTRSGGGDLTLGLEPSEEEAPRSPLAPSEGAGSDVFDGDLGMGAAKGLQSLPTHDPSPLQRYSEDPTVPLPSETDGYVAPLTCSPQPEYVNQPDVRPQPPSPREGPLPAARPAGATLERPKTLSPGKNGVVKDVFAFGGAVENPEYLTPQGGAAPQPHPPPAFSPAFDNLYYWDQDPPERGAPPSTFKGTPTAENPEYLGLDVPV

[7] = target: T1, MAP kinase-interacting serine/threonine-protein kinase 1; test: Inhibition of wild type human full length MKN1 (M1 to L424) expressed in mammalian expression system by HTRF method
[8] = target: T2, MAP kinase-interacting serine/threonine-protein kinase 2; test: Inhibition of wild type human partial length MKN2 (G63 to S388 residues) expressed in mammalian expression system by HTRF method
Target sequence in this assay (Q9HBH9 whole entry): as the sequence (Q9HBH9 whole entry) above

[9] = target: Serine/threonine-protein kinase pim-2 (Homo sapiens, UniProt Q9P1W9); test: Inhibition of recombinant human Pim2 (2 to end residues) using RSRHSSYPAGT as substrate incubated for 40 mins in presence of [gamma33P]ATP by scintillation counting based radiometry assay
Sequence of Serine/threonine-protein kinase pim-2 (Q9P1W9 whole entry): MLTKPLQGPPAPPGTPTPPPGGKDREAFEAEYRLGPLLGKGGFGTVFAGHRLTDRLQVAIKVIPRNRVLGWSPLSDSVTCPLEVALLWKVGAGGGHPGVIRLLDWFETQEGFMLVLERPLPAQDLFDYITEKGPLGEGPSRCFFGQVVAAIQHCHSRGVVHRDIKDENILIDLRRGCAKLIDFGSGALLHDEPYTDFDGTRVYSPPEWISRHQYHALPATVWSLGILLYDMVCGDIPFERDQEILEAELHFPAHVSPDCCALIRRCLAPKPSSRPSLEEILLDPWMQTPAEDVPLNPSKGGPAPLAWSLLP

[10] = target: Epidermal growth factor receptor (Homo sapiens, UniProt P00533); test: Inhibition of recombinant human EGFR (696 to end residues) using poly(Glu, Tyr) 4:1 as substrate after 40 mins in presence of [gamma-33ATP] by radiometric scintillation counting analysis
[11] = target: Epidermal growth factor receptor (Homo sapiens, UniProt P00533, T790M); test: Inhibition of recombinant human EGFR T790M mutant (696 to end residues) using GGMEDIYFEFMGG as substrate after 40 mins in presence of [gamma-33ATP] by radiometric scintillation counting analysis
Sequence of Epidermal growth factor receptor (Homo sapiens, UniProt P00533, T790M) (P00533 25-1210 T790M limits assumed): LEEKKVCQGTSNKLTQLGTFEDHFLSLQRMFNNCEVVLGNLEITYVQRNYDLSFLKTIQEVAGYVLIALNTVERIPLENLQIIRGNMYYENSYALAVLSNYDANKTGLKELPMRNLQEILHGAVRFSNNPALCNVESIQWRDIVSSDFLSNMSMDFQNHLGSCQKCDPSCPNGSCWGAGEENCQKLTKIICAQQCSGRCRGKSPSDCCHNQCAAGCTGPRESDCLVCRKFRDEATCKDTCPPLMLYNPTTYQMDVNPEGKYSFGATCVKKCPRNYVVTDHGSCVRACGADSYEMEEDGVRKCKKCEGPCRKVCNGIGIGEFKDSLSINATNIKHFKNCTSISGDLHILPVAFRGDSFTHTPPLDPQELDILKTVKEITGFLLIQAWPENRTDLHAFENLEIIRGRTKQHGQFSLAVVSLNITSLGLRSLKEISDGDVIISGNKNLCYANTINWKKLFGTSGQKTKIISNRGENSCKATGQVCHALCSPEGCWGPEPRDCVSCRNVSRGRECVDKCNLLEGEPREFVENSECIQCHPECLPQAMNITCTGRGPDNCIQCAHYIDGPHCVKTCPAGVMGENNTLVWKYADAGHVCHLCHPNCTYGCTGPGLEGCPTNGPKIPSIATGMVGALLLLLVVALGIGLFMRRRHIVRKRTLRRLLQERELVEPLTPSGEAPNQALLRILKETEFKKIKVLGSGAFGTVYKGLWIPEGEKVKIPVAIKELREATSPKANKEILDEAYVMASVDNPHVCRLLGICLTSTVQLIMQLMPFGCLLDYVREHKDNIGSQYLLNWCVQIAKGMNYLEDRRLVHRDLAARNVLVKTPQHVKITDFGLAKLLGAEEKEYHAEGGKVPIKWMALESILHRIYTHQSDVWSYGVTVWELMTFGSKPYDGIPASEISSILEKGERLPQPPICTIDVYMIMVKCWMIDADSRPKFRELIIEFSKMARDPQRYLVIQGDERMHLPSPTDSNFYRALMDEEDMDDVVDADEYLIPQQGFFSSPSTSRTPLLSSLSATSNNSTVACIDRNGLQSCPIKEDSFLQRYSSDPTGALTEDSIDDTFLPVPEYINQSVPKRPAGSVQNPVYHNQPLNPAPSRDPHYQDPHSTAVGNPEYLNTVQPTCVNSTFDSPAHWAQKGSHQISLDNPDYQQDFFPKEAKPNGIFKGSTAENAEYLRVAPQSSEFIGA

[12] = target: T3, Serine/threonine-protein kinase PIM (Homo sapiens) (UniProt P11309+Q9P1W9+Q86V86); test: Inhibition of PIM in human MOLM-13 cells assessed as reduction of BAD phosphorylation at 1 to 2 uM incubated for 12 hrs by western blot analysis; format: cell-based; settings: dose 1-2 µM
T3 sequence (P11309 whole entry, looked up): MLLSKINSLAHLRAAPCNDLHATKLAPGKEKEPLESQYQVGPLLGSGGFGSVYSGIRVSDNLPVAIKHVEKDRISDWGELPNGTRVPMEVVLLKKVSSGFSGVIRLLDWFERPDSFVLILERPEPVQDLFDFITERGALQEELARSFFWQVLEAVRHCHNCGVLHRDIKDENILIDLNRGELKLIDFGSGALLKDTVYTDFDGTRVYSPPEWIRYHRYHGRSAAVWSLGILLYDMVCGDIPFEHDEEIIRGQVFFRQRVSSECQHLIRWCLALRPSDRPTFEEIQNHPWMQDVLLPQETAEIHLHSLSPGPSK
T3 sequence (Q9P1W9 whole entry, looked up): as the sequence (Q9P1W9 whole entry) above

[13] = target: T3, Serine/threonine-protein kinase PIM (Homo sapiens); test: Inhibition of PIM in human MOLM-13 cells assessed as reduction in phosphorylated 4EBP1 at 1 to 2 uM incubated for 12 hrs by western blot analysis; format: cell-based; settings: dose 1-2 µM
MOLM-13 [14] = test: Downregulation of mcl-1 levels in human MOLM-13 cells at 1 to 2 uM incubated for 12 hrs by western blot analysis; format: functional, cell-based; settings: dose 1-2 µM
MOLM-13 [15] = test: Downregulation of cyclin-D1 levels in human MOLM-13 cells at 1 to 2 uM incubated for 12 hrs by western blot analysis; format: functional, cell-based; settings: dose 1-2 µM
MOLM-13 [16] = test: Induction of cell cycle arrest in human MOLM-13 cells assessed as G1 phase at 1 uM incubated for 12 hr by propidium iodide based flow cytometry analysis (Rvb= 51.29%); format: functional
MOLM-13 [17] = test: Induction of cell cycle arrest in human MOLM-13 cells assessed as sub-G1 phase at 2 uM incubated for 12 hr by propidium iodide based flow cytometry analysis (Rvb= 4.78%); format: functional
MOLM-13 [18] = test: Induction of apoptosis in human MOLM-13 cells assessed as necrotic cells at 1 uM incubated for 12 hrs by annexin-V and propidium iodide staining based flow cytometry analysis (reference value: 0.06%); format: functional
MOLM-13 [19] = test: Induction of apoptosis in human MOLM-13 cells assessed as necrotic cells at 2 uM incubated for 12 hrs by annexin-V and propidium iodide staining based flow cytometry analysis (reference value: 0.06%); format: functional
MOLM-13 [20] = test: Induction of apoptosis in human MOLM-13 cells assessed as early apoptotic cells at 2 uM incubated for 12 hrs by annexin-V and propidium iodide staining based flow cytometry analysis (reference value: 5.40%); format: functional
MOLM-13 [21] = test: Antitumor activity against human MOLM-13 cells xenografted in NOD/SCID mouse assessed as tumor growth inhibition at 5 mg/kg, ip daily for 2 weeks; format: functional; settings: MOLM-13, ip, 336 h, read-out: TGI
MOLM-13 [22] = test: Antitumor activity against human MOLM-13 cells xenografted in NOD/SCID mouse assessed as tumor growth inhibition at 10 mg/kg, ip daily for 2 weeks; format: functional; settings: MOLM-13, ip, 336 h, read-out: TGI
[23] = Toxicity in NOD/SCID mouse xenografted with human MOLM-13 cells assessed as abnormal changes in heart at 5 to 10 mg/kg, ip daily for 2 weeks by hematoxylin-eosin staining based histological analysis; format: organism-based; settings: in vivo, 336 h, dose 5-10 mg/kg
[24] = Toxicity in NOD/SCID mouse xenografted with human MOLM-13 cells assessed as abnormal changes in spleen at 5 to 10 mg/kg, ip daily for 2 weeks by hematoxylin-eosin staining based histological analysis; format: organism-based; settings: in vivo, 336 h, dose 5-10 mg/kg
[25] = Metabolic stability in human liver microsomes assessed as half life preincubated for 10 mins followed by NADPH addition and further incubated upto 60 mins by LC-MS/MS analysis; format: ADME, Microsome; settings: time <=70 min
[26] = Toxicity in NOD/SCID mouse xenografted with human MOLM-13 cells assessed as abnormal changes in kidney at 5 to 10 mg/kg, ip daily for 2 weeks by hematoxylin-eosin staining based histological analysis; format: organism-based; settings: in vivo, 336 h, dose 5-10 mg/kg
MOLM-13 [27] = test: Antitumor activity against human MOLM-13 cells xenografted in NOD/SCID mouse assessed as decrease in eIF4E phosphorylation at 10 mg/kg, ip daily for 2 weeks by western blot analysis; format: functional, organism-based
[28] = Intrinsic clearance in human liver microsomes preincubated for 10 mins followed by NADPH addition and further incubated upto 60 mins by LC-MS/MS analysis; format: ADME, Microsome; settings: time <=70 min, read-out: CLH
[29] = Intrinsic clearance in rat liver microsomes preincubated for 10 mins followed by NADPH addition and further incubated upto 60 mins by LC-MS/MS analysis; format: ADME, Microsome; settings: time <=70 min, read-out: CLH
[30] = Drug concentration in Sprague Dawley rat at 2 mg/kg, iv measured after 24 hrs; format: ADME, organism-based; settings: in vivo, read-out: Ct
[31] = Cmax in Sprague Dawley rat at 10 mg/kg, po measured after 24 hrs; format: ADME, organism-based; parameters: route oral, time 24 hrs, dose 10 mg/kg; settings: in vivo
[32] = Tmax in Sprague Dawley rat at 10 mg/kg, po measured after 24 hrs; format: ADME, organism-based; settings: in vivo
[33] = AUC (0 to t) in Sprague Dawley rat at 2 mg/kg, iv measured after 24 hrs; format: ADME, organism-based; parameters: route intravenous, time 24 hrs, dose 2 mg/kg; settings: in vivo
[34] = AUC (0 to t) in Sprague Dawley rat at 10 mg/kg, ip measured after 24 hrs; format: ADME, organism-based; parameters: route intraperitoneal, time 24 hrs, dose 10 mg/kg; settings: in vivo
[35] = AUC (0 to infinity) in Sprague Dawley rat at 10 mg/kg, ip measured after 24 hrs; format: ADME, organism-based; parameters: route intraperitoneal, dose 10 mg/kg, time 24 hrs; settings: in vivo
[36] = Bioavailability in Sprague Dawley rat at 10 mg/kg, ip measured after 24 hrs; format: ADME, organism-based; settings: in vivo

T1 sequence (Q9BUB5 whole entry): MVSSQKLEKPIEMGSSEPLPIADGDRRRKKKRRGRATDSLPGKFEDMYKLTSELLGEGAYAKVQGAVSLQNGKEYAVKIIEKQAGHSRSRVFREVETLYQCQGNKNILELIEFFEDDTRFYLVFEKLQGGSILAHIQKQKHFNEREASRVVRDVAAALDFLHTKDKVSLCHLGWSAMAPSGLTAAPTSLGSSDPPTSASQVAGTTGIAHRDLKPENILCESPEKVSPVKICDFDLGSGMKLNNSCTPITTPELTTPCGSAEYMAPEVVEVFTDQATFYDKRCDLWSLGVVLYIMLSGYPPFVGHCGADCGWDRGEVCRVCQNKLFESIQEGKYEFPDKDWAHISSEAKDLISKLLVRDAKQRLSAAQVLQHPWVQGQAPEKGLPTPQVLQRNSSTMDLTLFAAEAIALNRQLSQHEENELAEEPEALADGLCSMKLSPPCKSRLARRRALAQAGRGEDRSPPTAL

CC(C)Oc1cc(F)ccc1Nc1ncnc2ccc(-c3ccc(C(=O)N4CCNCC4)cc3)nc12
IC50 [1]: 1 nM | IC50 [2]: 7 nM | GI50 (MOLM-13 [3]): 1230 nM | inhibition [4]: 100% | inhibition [5]: 87% | inhibition [6]: 60% | IC50 [7]: 1 nM | IC50 [8]: 7 nM | IC50 [9]: 232 nM | IC50 [10]: 1970 nM | IC50 [11]: > 10000 nM | inhibition [12]: Active | inhibition [13]: Active | Activity (MOLM-13 [14]): Active | Activity (MOLM-13 [15]): Active | Activity (MOLM-13 [16]): 61.13% | Activity (MOLM-13 [17]): 32.41% | Activity (MOLM-13 [18]): 0.11% | Activity (MOLM-13 [19]): 0.73% | Activity (MOLM-13 [20]): 29.57% | inhibition in vivo at 5 mg/kg (MOLM-13 [21]): 41.2% | inhibition in vivo at 10 mg/kg (MOLM-13 [22]): 57.6% | Activity [23]: Non-Toxic | Activity [24]: Non-Toxic | half-life [25]: 3.4 h | Activity [26]: Non-Toxic | Activity (MOLM-13 [27]): Active | CLint scaled [28]: 8.53 mL/min/kg | CLint scaled [29]: 68.8 mL/min/kg | concentration at 24 h [30]: 765 ng/mL | Cmax [31]: 224 ng/mL | Tmax [32]: 8 h | AUC(0-t) at 24 h [33]: 1610 ng·h/mL | AUC(0-t) at 24 h [34]: 1660 ng·h/mL | AUC(0-inf) [35]: 1680 ng·h/mL | bioavailability [36]: 20.6%
